Test results: US5674867A, “Indolocarbazole derivatives and therapeutic method for stimulating megakaicyocyte production” (Kyowa Hakko Kogyo Co., Ltd., priority 1992, dated 1997)

Tested on: bone marrow cells (megakaryocyte colony formation)
Assay: Megakaryocyte colony formation-stimulating activity (ACHE-stained colonies, bone marrow cells with IL-3)
Assay type: cell-based, BALB/c mouse
Conditions: with IL-3 100 U/ml, 7 days
Description: An eight-weeks-old BALB/c mouse was killed. Its femurs and cervical vertebrae were taken out, and both end sections thereof were cut off. Bone marrow cells were collected from the pieces cut off from the femurs and cervical vertebrae using a syringe containing IMDM (430-2200EA prepared by Gibco Co.), and then blown into a test tube. The test tube was allowed to stand for 5 minutes, and the supernatant was collected with a pipet. To a reaction mixture comprising the bone marrow cells (50,000 cells), bovine serum albumin (2%: A4508 made by Sigma Co.), transferrin (600 μg/ml 652202 made by Boehringer Mannheim Co.), IL-3 (100 U/ml), cholesterol (16 μg/ml: 036-0641 made by Wako Co.) and agar (0.6%: 0142-02 made by Difco Laboratories) were separately added the test compounds at various concentrations, and 1 ml each of the mixtures was put into a 35-mm dish (Lux Co.), followed by incubation under the conditions of 37° C., 5% CO2 and a humidity of 95% or more for 7 days. Separately, IL-3 alone was added to the bone marrow cells to prepare a control, whereas a positive control was prepared by adding 200 U/ml IL-6 to the above-mentioned reaction mixture. After the incubation was completed, the agar was dried over a filter paper (1001-055 made by Whatman Co.) and then fixed with 2.5% glutaraldehyde, followed by acetylcholinesterase staining (ACHE staining).
The ACHE staining was carried out by the method described below.
ACHE staining: To each sample was added a solution comprising 0.67 mg/ml acetylthiocholine iodide, 2.94 mg/ml sodium citrate, 7.5 mg/ml copper (II) sulfate and 1.65 mg/ml potassium ferricyanide, and the mixture was allowed to stand at room temperature in the dark for 4-6 hours.
A group of 4 or more megakaryocytes which were stained reddish brown was regarded as a colony, and the number of colonies per dish was calculated using a microscope. The results are shown in Table 2 as relative values to the control.

CNC1CC2OC(C)(C1OC)n1c3ccccc3c3c4c(c5c6ccccc6n2c5c31)C(=O)N(C)C4 (stereo not drawn) [Compound I-2] was tested, and the “Relative value (megakaryocyte colonies, control = 100)” value (from here on “Relative value”) (0.01 nM) was 125 and the “Relative value” value (1 nM, 10080 min, 0.001 µM) was 168.

CNC1CC2OC(C)(C1OC)n1c3ccccc3c3c4c(c5c6ccccc6n2c5c31)C(=O)N(N)C4=O (stereo not drawn) [Compound I-3] was tested, and the “Relative value” value (0.01 nM) was 98.8 and the “Relative value” value (1 nM) was 127.

In the case of CNC1CC2OC(C)(C1OC)n1c3ccccc3c3c4c(c5c6ccccc6n2c5c31)C(=O)N(C)C4 (stereo not drawn) [Compound I-22], the “Relative value” value (0.1 nM) is reported as 116, the “Relative value” value (1 nM, 10080 min, 0.001 µM) is reported as 120 and the “Relative value” value (10 nM) is reported as 100.

With COC(=O)C1(O)CC2OC1(C)n1c3ccccc3c3c4c(c5c6ccccc6n2c5c31)C(=O)N(Cc1ccccc1)C4=O (stereo not drawn) [Compound I-13] the “Relative value” value (0.1 nM) was 100, the “Relative value” value (1 nM) was 113 and the “Relative value” value (10 nM) was 125.

CNC1CC2OC(C)(C1OC)n1c3ccccc3c3c4c(c5c6ccccc6n2c5c31)C(=O)N(C)C4O (single isomer, unassigned) [Compound I-23b] was tested, and the “Relative value” value (0.1 nM) was 114.

With CNC1CC2OC(C)(C1OC)n1c3ccccc3c3c4c(c5c6cc(Br)ccc6n2c5c31)C(=O)NC4 (stereo not drawn) [Compound I-29] the “Relative value” value (0.1 nM) was 90, the “Relative value” value (1 nM) was 113 and the “Relative value” value (10 nM) was 112.

For COC1C(N(C)C(=O)OCc2ccccc2)CC2OC1(C)n1c3ccccc3c3c4c(c5c6ccccc6n2c5c31)C(=O)N(C)C4 (stereo not drawn) [Compound I-18], the “Relative value” value (0.1 nM) was 118, the “Relative value” value (1 nM) was 88 and the “Relative value” value (10 nM) was 84.

For CNC1CC2OC(C)(C1OC)n1c3ccccc3c3c4c(c5c6ccccc6n2c5c31)C(=O)N(Cc1ccccc1)C4 (stereo not drawn) [Compound I-21], the “Relative value” value (0.1 nM) was 95, the “Relative value” value (1 nM) was 105 and the “Relative value” value (10 nM) was 97.

For O=C1NCc2c1c1c3ccccc3[nH]c1c1[nH]c3ccccc3c21 [Compound I-16], the “Relative value” value (0.1 nM) was 118, the “Relative value” value (1 nM) was 88.3 and the “Relative value” value (10 nM) was 100.

For CC(C)OC(=O)C1(O)CC2OC1(C)n1c3ccccc3c3c4c(c5c6ccccc6n2c5c31)C(=O)NC4 (stereo not drawn) [Compound I-45], the “Relative value” value (0.1 nM) was 103, the “Relative value” value (1 nM) was 143 and the “Relative value” value (10 nM) was 100.

With CCCCCCN(C)C1CC2OC(C)(C1OC)n1c3ccccc3c3c4c(c5c6ccccc6n2c5c31)C(=O)NC4 (stereo not drawn) [Compound I-27] the “Relative value” value (0.1 nM) was 76, the “Relative value” value (1 nM) was 109 and the “Relative value” value (10 nM) was 97.

With CCCOc1ccc2c(c1)c1c3c(c4c5ccccc5n5c4c1n2C1CC(OC)(C(=O)OC)C5(C)O1)CN(C)C3=O (stereo not drawn) [Compound I-38] the “Relative value” value (0.1 nM) was 112, the “Relative value” value (1 nM) was 111 and the “Relative value” value (10 nM) was 136.

For COC(=O)C1(OC)CC2OC1(C)n1c3ccccc3c3c4c(c5c6ccccc6n2c5c31)C(=O)NC4 (stereo not drawn) [Compound I-36], the “Relative value” value (0.1 nM) was 130, the “Relative value” value (1 nM) was 172 and the “Relative value” value (10 nM) was 173.

In the case of CC12OC(CC1O)n1c3ccccc3c3c4c(c5c6ccccc6n2c5c31)CNC4=O (stereo not drawn) [Compound I-46], the “Relative value” value (0.1 nM) is reported as 97, the “Relative value” value (1 nM) is reported as 131 and the “Relative value” value (10 nM) is reported as 112.

CCCCOC(=O)C1(O)CC2OC1(C)n1c3ccccc3c3c4c(c5c6ccccc6n2c5c31)C(=O)NC4=O (stereo not drawn) [Compound I-43] was tested, and the “Relative value” value (0.1 nM) was 81, the “Relative value” value (1 nM) was 118 and the “Relative value” value (10 nM) was 87.

For COC(=O)C1(OC(C)=O)CC2OC1(C)n1c3ccccc3c3c4c(c5c6ccccc6n2c5c31)C(=O)N(C(C)=O)C4 (stereo not drawn) [Compound I-8], the “Relative value” value (0.01 nM) was 95.6, the “Relative value” value (1 nM) was 118 and the “Relative value” value (100 nM) was 89.6.

CCCCCCOC(=O)C1(O)CC2OC1(C)n1c3ccccc3c3c4c(c5c6ccccc6n2c5c31)C(=O)NC4 (stereo not drawn) [Compound I-5] was tested, and the “Relative value” value (0.01 nM) was 112, the “Relative value” value (1 nM) was 104 and the “Relative value” value (100 nM) was 103.

COC1C(N(C)C)CC2OC1(C)n1c3ccccc3c3c4c(c5c6ccccc6n2c5c31)C(=O)N(C)C4 (stereo not drawn) [Compound I-49] was tested, and the “Relative value” value (0.1 nM) was 122 and the “Relative value” value (1 nM) was 128.

COC(=O)C1(O)CC2OC1(C)n1c3ccccc3c3c4c(c5c6ccccc6n2c5c31)C(=O)NC4O (stereo not drawn) [Compound I-4] was tested, and the “Relative value” value (0.01 nM) was 94.3 and the “Relative value” value (1 nM) was 115.

In the case of CCCN1Cc2c(c3c4ccccc4n4c3c3c2c2ccccc2n3C2(C)OC4CC(NC)C2OC)C1=O (stereo not drawn) [Compound I-19], the “Relative value” value (0.1 nM) is reported as 118, the “Relative value” value (1 nM) is reported as 94 and the “Relative value” value (10 nM) is reported as 156.

CCSC1NC(=O)c2c1c1c3ccccc3n3c1c1c2c2ccccc2n1C1CC(O)(C(=O)OC)C3(C)O1 (stereo not drawn) [Compound I-14] was tested, and the “Relative value” value (0.1 nM) was 118, the “Relative value” value (1 nM) was 115 and the “Relative value” value (10 nM) was 116.

For COC1C(N(C)C(C)=O)CC2OC1(C)n1c3ccccc3c3c4c(c5c6ccccc6n2c5c31)C(=O)NC4 (stereo not drawn) [Compound I-28], the “Relative value” value (0.1 nM) was 89, the “Relative value” value (1 nM) was 101 and the “Relative value” value (10 nM) was 95.

With CCCOc1ccc2c(c1)c1c3c(c4c5ccccc5n5c4c1n2C1CC(O)(C(=O)OC)C5(C)O1)CNC3=O (stereo not drawn) [Compound I-6] the “Relative value” value (0.01 nM) was 112, the “Relative value” value (1 nM) was 132 and the “Relative value” value (100 nM) was 117.

For CCCCCCN1Cc2c(c3c4ccccc4n4c3c3c2c2ccccc2n3C2(C)OC4CC(NC)C2OC)C1=O (stereo not drawn) [Compound I-20], the “Relative value” value (0.1 nM) was 107, the “Relative value” value (1 nM) was 131 and the “Relative value” value (10 nM) was 144.

With CNC1CC2OC(C)(C1OC)n1c3ccccc3c3c4c(c5c6ccccc6n2c5c31)C(=O)N(C)C4O (single isomer, unassigned) [Compound I-23a] the “Relative value” value (0.1 nM) was 114.

For CCCN1C(=O)c2c(c3c4ccccc4n4c3c3c2c2ccccc2n3C2CC(O)(C(=O)OC)C4(C)O2)C1=O (stereo not drawn) [Compound I-44], the “Relative value” value (0.1 nM) was 126, the “Relative value” value (1 nM) was 70 and the “Relative value” value (10 nM) was 118.

CCCOC(=O)C1(O)CC2OC1(C)n1c3ccccc3c3c4c(c5c6ccccc6n2c5c31)C(=O)NC4 (stereo not drawn) [Compound I-42] was tested, and the “Relative value” value (0.1 nM) was 91, the “Relative value” value (1 nM) was 107 and the “Relative value” value (10 nM) was 122.

With COC(=O)C1(OC)CC2OC1(C)n1c3ccccc3c3c4c(c5c6ccccc6n2c5c31)C(=O)N(C)C4 (stereo not drawn) [Compound I-7] the “Relative value” value (0.01 nM) was 93, the “Relative value” value (1 nM) was 101 and the “Relative value” value (100 nM) was 108.

In the case of CCCCOC(=O)C1(O)CC2OC1(C)n1c3ccccc3c3c4c(c5c6ccccc6n2c5c31)C(=O)NC4 (stereo not drawn) [Compound I-15], the “Relative value” value (0.1 nM) is reported as 120, the “Relative value” value (1 nM) is reported as 121 and the “Relative value” value (10 nM) is reported as 132.

With COC(=O)C1(OC(C)=O)CC2OC1(C)n1c3ccccc3c3c4c(c5c6cc(C(C)=O)ccc6n2c5c31)C(=O)N(C(C)=O)C4 (stereo not drawn) [Compound I-37] the “Relative value” value (0.1 nM) was 82, the “Relative value” value (1 nM) was 124 and the “Relative value” value (10 nM) was 114.

In the case of CCCOc1ccc2c(c1)c1c3c(c4c5cc(OCCC)ccc5n5c4c1n2C1CC(O)(C(=O)OC)C5(C)O1)CNC3=O (stereo not drawn) [Compound I-12], the “Relative value” value (0.1 nM) is reported as 133, the “Relative value” value (1 nM) is reported as 113 and the “Relative value” value (10 nM) is reported as 122.

With CCCN(C)C1CC2OC(C)(C1OC)n1c3ccccc3c3c4c(c5c6ccccc6n2c5c31)C(=O)N(C)C4 (stereo not drawn) [Compound I-24] the “Relative value” value (0.1 nM) was 88, the “Relative value” value (1 nM) was 87 and the “Relative value” value (10 nM) was 109.

For COCOC1(C(=O)OC)CC2OC1(C)n1c3ccccc3c3c4c(c5c6ccccc6n2c5c31)C(=O)NC4 (stereo not drawn) [Compound I-39], the “Relative value” value (0.1 nM) was 123, the “Relative value” value (1 nM) was 109 and the “Relative value” value (10 nM) was 92.

For CNC1CC2OC(C)(C1OC)n1c3ccccc3c3c4c(c5c6cc(C=O)ccc6n2c5c31)C(=O)N(C)C4 (stereo not drawn) [Compound I-50], the “Relative value” value (1 nM) was 118 and the “Relative value” value (10 nM) was 128.
